The target in assay [1] is recombinant human ACC1 (rhACC1) (Homo sapiens (Human), UniProt Q13085). Description: recombinant hACC1 Transcreener ADP detection FP assay. It is filed as biochemical. As to conditions: 50 μM ATP, 120 min at 25° C. On the procedure:
(§1) For example direct inhibition of ACC activity, for the compound of Formula (I) was determined using preparations of recombinant human ACC1 (rhACC1) and recombinant human ACC2 (rhACC2).
[1] Preparation of rhACC1. Two liters of SF9 cells, infected with recombinant baculovirus containing full length human ACC1 cDNA, were suspended in ice-cold lysis buffer (25 mM Tris, pH 7.5; 150 mM NaCl; 10% glycerol; 5 mM imidazole (EMD Bioscience; Gibbstown, N.J.); 2 mM TCEP (BioVectra; Charlottetown, Canada); Benzonase nuclease (10000 U/100 g cell paste; Novagen; Madison, Wis.); EDTA-free protease inhibitor cocktail (1 tab/50 mL; Roche Diagnostics; Mannheim, Germany). Cells were lysed by 3 cycles of freeze-thaw and centrifuged at 40,000×g for 40 minutes (4° C.). Supernatant was directly loaded onto a HisTrap FF crude column (GE Healthcare; Piscataway, N.J.) and eluted with an imidazole gradient up to 0.5 M over 20 column volumes (CV). ACC1-containing fractions were pooled and diluted 1:5 with 25 mM Tris, pH 7.5, 2 mM TCEP, 10% glycerol and direct loaded onto a CaptoQ (GE Healthcare) column and eluted with an NaCl gradient up to 1 M over 20 CV's. Phosphate groups were removed from purified ACC1 by incubation with lambda phosphatase (100 U/10 μM target protein; New England Biolabs; Beverly, Mass.) for 14 hours at 4° C.; okadaic acid was added (1 μM final concentration; Roche Diagnostics) to inhibit the phosphatase. Purified ACC1 was exchanged into 25 mM Tris, pH 7.5, 2 mM TCEP, 10% glycerol, 0.5 M NaCl by 6 hour dialysis at 4° C. Aliquots were prepared and frozen at −80° C.
[2] Measurement of rhACC1 inhibition. hACC1 was assayed in a Costar #3676 (Costar, Cambridge, Mass.) 384-well plate using the Transcreener ADP detection FP assay kit (Bellbrook Labs, Madison, Wis.) using the manufacturer's recommended conditions for a 50 μM ATP reaction. The final conditions for the assay were 50 mM HEPES, pH 7.2, 10 mM MgCl2, 7.5 mM tripotassium citrate, 2 mM DTT, 0.1 mg/mL BSA, 30 μM acetyl-CoA, 50 μM ATP, and 10 mM KHCO3 Typically, a 10 μl reaction was run for 120 min at 25° C., and 10 μl of Transcreener stop and detect buffer was added and the combination incubated at room temp for an additional 1 hour. The data was acquired on a Envision Fluorescence reader (PerkinElmer) using a 620 excitation Cy5 FP general dual mirror, 620 excitation Cy5 FP filter, 688 emission (S) and a 688 (P) emission filter.

Assay [2] concerns the target recombinant human ACC2 (rhACC2) (Homo sapiens (Human), UniProt O00763). As to the kind of experiment: recombinant hACC2 Transcreener ADP detection FP assay. It is filed as biochemical. The settings on record: 50 uM ATP, 50 min at 25° C. The procedure: as §1
[3] Preparation of rhACC2. Human ACC2 inhibition was measured using purified recombinant human ACC2 (hrACC2). Briefly, a full length Cytomax clone of ACC2 was purchased from Cambridge Bioscience Limited and was sequenced and subcloned into PCDNA5 FRT TO-TOPO (Invitrogen, Carlsbad, Calif.). The ACC2 was expressed in CHO cells by tetracycline induction and harvested in 5 liters of DMEM/F12 with glutamine, biotin, hygromycin and blasticidin with 1 μg/mL tetracycline (Invitrogen, Carlsbad, Calif.). The conditioned medium containing ACC2 was then applied to a Softlink Soft Release Avidin column (Promega, Madison, Wis.) and eluted with 5 mM biotin. […] The purified ACC2 was dialyzed in 50 mM Tris, 200 mM NaCl, 4 mM DTT, 2 mM EDTA, and 5% glycerol. […] For measurement of ACC2 activity and assessment of ACC2 inhibition, test compounds were dissolved in DMSO and added to the rhACC2 enzyme as a 5× stock with a final DMSO concentration of 1%.
[4] Measurement of human ACC2 inhibition. hACC2 was assayed in a Costar #3676 (Costar, Cambridge, Mass.) 384-well plate using the Transcreener ADP detection FP assay kit (Bellbrook Labs, Madison, Wis.) using the manufacturer's recommended conditions for a 50 uM ATP reaction. The final conditions for the assay were 50 mM HEPES, pH 7.2, 5 mM MgCl2, 5 mM tripotassium citrate, 2 mM DTT, 0.1 mg/mL BSA, 30 μM acetyl-CoA, 50 μM ATP, and 8 mM KHCO3 Typically, a 10 μl reaction was run for 50 min at 25° C., and 10 μl of Transcreener stop and detect buffer was added and the combination incubated at room temp for an additional 1 hour. The data was acquired on an Envision Fluorescence reader (PerkinElmer) using a 620 excitation Cy5 FP general dual mirror, 620 excitation Cy5 FP filter, 688 emission (S) and a 688 (P) emission filter.

Sequence of recombinant human ACC2 (rhACC2) (O00763 whole entry V2141I): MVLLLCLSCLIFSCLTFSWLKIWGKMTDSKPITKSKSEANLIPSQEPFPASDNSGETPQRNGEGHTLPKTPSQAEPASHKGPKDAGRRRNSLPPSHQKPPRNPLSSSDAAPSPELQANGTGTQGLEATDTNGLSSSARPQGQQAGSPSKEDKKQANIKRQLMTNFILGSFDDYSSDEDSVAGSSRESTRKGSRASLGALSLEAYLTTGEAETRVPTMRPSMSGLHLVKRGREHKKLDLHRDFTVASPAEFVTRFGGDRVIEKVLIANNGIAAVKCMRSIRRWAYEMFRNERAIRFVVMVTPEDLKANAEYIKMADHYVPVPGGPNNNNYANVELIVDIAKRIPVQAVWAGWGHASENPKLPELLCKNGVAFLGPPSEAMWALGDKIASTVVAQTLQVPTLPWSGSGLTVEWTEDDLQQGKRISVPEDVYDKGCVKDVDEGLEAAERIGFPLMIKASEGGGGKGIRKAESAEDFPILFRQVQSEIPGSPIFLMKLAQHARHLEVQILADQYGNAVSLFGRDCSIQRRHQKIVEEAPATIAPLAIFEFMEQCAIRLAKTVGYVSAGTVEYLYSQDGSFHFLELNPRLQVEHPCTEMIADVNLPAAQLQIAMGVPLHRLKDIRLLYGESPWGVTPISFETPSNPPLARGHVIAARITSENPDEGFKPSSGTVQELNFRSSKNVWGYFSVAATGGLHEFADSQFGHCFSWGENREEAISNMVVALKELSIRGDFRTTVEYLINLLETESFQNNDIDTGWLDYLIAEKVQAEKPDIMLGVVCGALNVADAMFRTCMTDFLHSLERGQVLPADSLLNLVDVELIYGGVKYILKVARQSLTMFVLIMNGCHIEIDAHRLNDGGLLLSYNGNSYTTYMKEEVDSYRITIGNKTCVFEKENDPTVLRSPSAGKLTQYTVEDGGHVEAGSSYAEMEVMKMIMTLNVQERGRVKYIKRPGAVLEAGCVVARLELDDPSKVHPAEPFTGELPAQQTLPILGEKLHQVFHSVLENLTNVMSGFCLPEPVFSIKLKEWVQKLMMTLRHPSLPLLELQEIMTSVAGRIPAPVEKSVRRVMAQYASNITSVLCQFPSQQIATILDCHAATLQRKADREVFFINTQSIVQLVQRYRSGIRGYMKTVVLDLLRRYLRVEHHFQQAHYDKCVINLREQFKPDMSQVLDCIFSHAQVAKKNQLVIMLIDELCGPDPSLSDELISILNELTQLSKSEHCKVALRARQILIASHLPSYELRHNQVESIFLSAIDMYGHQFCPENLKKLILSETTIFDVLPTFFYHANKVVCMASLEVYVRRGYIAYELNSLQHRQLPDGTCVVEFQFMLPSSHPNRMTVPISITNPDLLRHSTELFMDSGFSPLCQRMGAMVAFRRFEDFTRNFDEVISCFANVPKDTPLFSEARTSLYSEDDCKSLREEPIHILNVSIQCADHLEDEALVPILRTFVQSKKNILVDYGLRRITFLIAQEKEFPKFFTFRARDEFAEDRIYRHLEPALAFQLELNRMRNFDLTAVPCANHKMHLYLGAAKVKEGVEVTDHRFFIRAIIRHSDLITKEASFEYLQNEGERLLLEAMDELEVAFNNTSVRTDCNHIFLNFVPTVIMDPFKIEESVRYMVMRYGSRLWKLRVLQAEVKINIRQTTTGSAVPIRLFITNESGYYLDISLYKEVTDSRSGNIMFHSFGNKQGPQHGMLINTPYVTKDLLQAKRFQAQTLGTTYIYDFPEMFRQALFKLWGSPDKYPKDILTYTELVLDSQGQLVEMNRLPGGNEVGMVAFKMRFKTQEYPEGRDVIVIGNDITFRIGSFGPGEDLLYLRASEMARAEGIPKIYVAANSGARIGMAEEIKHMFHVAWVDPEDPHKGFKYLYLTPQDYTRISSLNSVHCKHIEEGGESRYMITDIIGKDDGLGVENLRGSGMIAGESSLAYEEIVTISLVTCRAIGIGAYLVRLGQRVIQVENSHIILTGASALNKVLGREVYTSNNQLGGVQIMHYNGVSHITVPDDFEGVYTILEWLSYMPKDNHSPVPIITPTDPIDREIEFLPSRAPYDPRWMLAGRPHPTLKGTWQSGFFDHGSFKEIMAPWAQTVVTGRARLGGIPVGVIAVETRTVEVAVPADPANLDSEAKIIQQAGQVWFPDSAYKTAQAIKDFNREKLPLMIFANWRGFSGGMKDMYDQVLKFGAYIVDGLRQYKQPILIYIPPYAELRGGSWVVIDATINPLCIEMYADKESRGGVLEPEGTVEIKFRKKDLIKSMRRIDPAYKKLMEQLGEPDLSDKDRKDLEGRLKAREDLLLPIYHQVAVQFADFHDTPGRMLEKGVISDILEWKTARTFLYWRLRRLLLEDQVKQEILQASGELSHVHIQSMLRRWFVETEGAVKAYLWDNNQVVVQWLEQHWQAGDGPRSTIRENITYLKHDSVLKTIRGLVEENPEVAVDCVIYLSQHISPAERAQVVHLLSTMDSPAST

Consider `CC(C)(C)n1cc2c(n1)C(=O)NC1(CCN(C(=O)c3ccc4[nH]nc(C#N)c4c3)CC1)C2` [Example 60], for which the IC50 was determined as 43 nM in assay [1] and 14 nM in assay [2].
Take `COc1cc(C(=O)N2CCC3(CC2)Cc2cn(C(C)(C)C)nc2C(=O)N3)cc2cn[nH]c12` [Example 99, 2′-tert-butyl-1-(7-methoxy-1H-indazole-5-carbonyl)-4′,6′-dihydrospiro[piperidine-4,5′-pyrazolo[3,4-c]pyridin]-7′(2′H)-one]: the values for the IC50 in assay [1] and in assay [2] were 23 nM and 5.6 nM, respectively.
`CNc1cc2cc(C(=O)N3CCC4(CC3)Cc3cn(C(C)(C)C)nc3C(=O)N4)ccc2cn1` [Example 73]: the concentration for half-maximal inhibition (IC50) in assay [1] is 48 nM; in assay [2], 5.5 nM.
Taken in the same sequence, the figures for `CC(C)(C)n1cc2c(n1)C(=O)NC1(CCN(C(=O)c3ccc4ccnc(NC5CC5)c4c3)CC1)C2` [Example 115] were 29 nM and 2.9 nM.
In the case of `CNc1ccc2cc(C(=O)N3CCC4(CC3)Cc3cn(C(C)(C)C)nc3C(=O)N4)ccc2n1` [Example 69], the IC50 was determined as 185 nM in assay [1] and 28 nM in assay [2].
Take `COc1nccc2ccc(C(=O)N3CCC4(CC3)Cc3cnn(C(C)C)c3C(=O)N4)cc12` [Example 30]: the IC50 in assay [1] came to 98 nM; in assay [2], 30 nM.
In the same order, the values of `CC(C)(C)n1cc2c(n1)C(=O)NC1(CCN(C(=O)c3ccc4nc(N)ccc4c3)CC1)C2` [Example 58] are 149 nM and 12 nM.
On to `CC(C)(C)n1cc2c(n1)C(=O)NC1(CCN(C(=O)c3ccc4[nH]c(N)nc4c3)CC1)C2` [Example 77], for which the IC50 stood at 80 nM in assay [1] and 8.4 nM in assay [2].
As for `CC(C)(C)n1cc2c(n1)C(=O)NC1(CCN(C(=O)c3ccc4c(C#N)n[nH]c4c3)CC1)C2` [Example 53], the figures for the IC50 in assay [1] and in assay [2] were 47 nM and 13 nM, respectively.
On to `CC(C)(C)n1cc2c(n1)C(=O)NC1(CCN(C(=O)c3cc(C(F)(F)F)c4[nH]ncc4c3)CC1)C2` [Example 78], for which the IC50 in assay [1] stood at 155 nM; in assay [2], 34 nM.
As to `Cc1n[nH]c2ccc(C(=O)N3CCC4(CC3)Cc3cnn(C(C)C)c3C(=O)N4)cc12` [Example 16], the values for the IC50 in assay [1] and in assay [2] were 118 nM and 90 nM, respectively.
Taken in the same sequence, the figures for `CC(C)n1ncc2c1C(=O)NC1(CCN(C(=O)c3cnc4cc[nH]c4c3)CC1)C2` [Example 10] were 403 nM and 498 nM.
In the case of `COc1cc(C(=O)N2CCC3(CC2)Cc2cn(C(C)(C)C)nc2C(=O)N3)cc2c(C)n[nH]c12` [Example 87], the figures for the IC50 in assay [1] and in assay [2] were 17 nM and 2.1 nM, respectively.
`CNc1n[nH]c2ccc(C(=O)N3CCC4(CC3)Cc3cn(C(C)(C)C)nc3C(=O)N4)cc12` [Example 93]: the IC50 in assay [1] came to 65 nM; in assay [2], 8.6 nM.
Turning to `COc1nccc2cc(C(=O)N3CCC4(CC3)Cc3cn(C(C)(C)C)nc3C(=O)N4)ccc12` [Example 92], the IC50 in assay [1] worked out at 244 nM; in assay [2], 55 nM.
As to `Cn1[nH]c2ccc(C(=O)N3CCC4(CC3)Cc3cn(C(C)(C)C)nc3C(=O)N4)cc2c1=O` [Example 67], the IC50 in assay [1] amounted to 1340 nM; in assay [2] it was 311 nM.
In the same order, the values of `COCCNc1ccc2ccc(C(=O)N3CCC4(CC3)Cc3cn(C(C)(C)C)nc3C(=O)N4)cc2n1` [Example 111] are 27 nM and 3.3 nM.
In the same order, the values of `CC(C)n1ncc2c1C(=O)NC1(CCN(C(=O)c3cnc4c(Cl)c[nH]c4c3)CC1)C2` [Example 32] are 154 nM and 56 nM.
For `CC(C)(C)n1cc2c(n1)C(=O)NC1(CCN(C(=O)c3ccc4ccc(NC5COC5)nc4c3)CC1)C2` [Example 113], the IC50 in assay [1] was 507 nM; in assay [2], 44 nM.
With `CC(C)n1ncc2c1C(=O)NC1(CCN(C(=O)c3ccc4nn(C)cc4c3)CC1)C2` [Example 3, 1′-isopropyl-1-(2-methyl-2H-indazole-5-carbonyl)-4′,6′-dihydrospiro[piperidine-4,5′-pyrazolo[3,4-c]pyridin]-7′(1′H)-one], the figures for the IC50 in assay [1] and in assay [2] were 3920 nM and 2280 nM, respectively.
Regarding `CC(F)(F)CNc1ccc2ccc(C(=O)N3CCC4(CC3)Cc3cn(C(C)(C)C)nc3C(=O)N4)cc2n1` [Example 125], the IC50 in assay [1] worked out at 9 nM; in assay [2] it was 1.7 nM.
For `CC(C)n1ncc2c1C(=O)NC1(CCN(C(=O)c3ccc4[nH]nc(Cl)c4c3)CC1)C2` [Example 34], the IC50 worked out at 116 nM in assay [1] and 50 nM in assay [2].
Turning to `CC(C)(C)n1ncc2c1C(=O)NC1(CCN(C(=O)c3ccc4n[nH]cc4c3)CC1)C2` [Example 6], the IC50 in assay [1] came to 269 nM; in assay [2], 305 nM.
With `COc1cccc2cc(C(=O)N3CCC4(CC3)Cc3cn(C(C)(C)C)nc3C(=O)N4)cnc12` [Example 68], the values for the IC50 in assay [1] and in assay [2] were 221 nM and 68 nM, respectively.
Taken in the same sequence, the figures for `CCN(C)c1ccc2ccc(C(=O)N3CCC4(CC3)Cc3cn(C(C)(C)C)nc3C(=O)N4)cc2n1` [Example 108] were 15 nM and 2.4 nM.
For the molecule `Cc1n[nH]c2c(C)cc(C(=O)N3C4CCC3CC3(Cc5cn(C(C)(C)C)nc5C(=O)N3)C4)cc12` (stereo not drawn) [Example 114], the IC50 is 4820 nM in assay [1] and 612 nM in assay [2].
With `CNc1n[nH]c2cc(C(=O)N3CCC4(CC3)Cc3cn(C(C)(C)C)nc3C(=O)N4)ccc12` [Example 89], the IC50 in assay [1] turned out to be 343 nM; in assay [2], 44 nM.
In the same order, the values of `CNc1cc2ccc(C(=O)N3CCC4(CC3)Cc3cn(C(C)(C)C)nc3C(=O)N4)cc2cn1` [Example 95] are 105 nM and 9.2 nM.
Taken in the same sequence, the figures for `CCCNc1nccc2ccc(C(=O)N3CCC4(CC3)Cc3cn(C(C)(C)C)nc3C(=O)N4)cc12` [Example 119] were 24 nM and 2.5 nM.
Consider `CC(C)(C)n1cc2c(n1)C(=O)NC1(CCN(C(=O)c3ccc4ccc(NC5CCC5)nc4c3)CC1)C2` [Example 109], for which the figures for the IC50 in assay [1] and in assay [2] were 3.4 nM and 1 nM, respectively.
As for `Cc1cc(C(=O)N2CCC3(CC2)Cc2cn(C(C)C)nc2C(=O)N3)cc2cn[nH]c12` [Example 42], the IC50 in assay [1] was determined as 68 nM; in assay [2] it was 29 nM.
In the same order, the values of `CC(C)(C)Nc1nccc2ccc(C(=O)N3CCC4(CC3)Cc3cn(C(C)(C)C)nc3C(=O)N4)cc12` [Example 123, 2′-(tert-butyl)-1-(1-(tert-butylamino)isoquinoline-7-carbonyl)-4′,6′-dihydrospiro[piperidine-4,5′-pyrazolo[3,4-c]pyridin]-7′(2′H)-one] are 78 nM and 6.3 nM.
`CC(C)(C)n1cc2c(n1)C(=O)NC1(CCN(C(=O)c3ccc4[nH]nc(N)c4c3)CC1)C2` [Example 61]: the IC50 in assay [1] stood at 94 nM; in assay [2], 13 nM.
